Assay results from ChEMBL document CHEMBL1201862, “PubChem BioAssay data set” (2004).
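Each compound was tested at five concentrations against cells in 96-well plates for 48 hours. GI50 is the concentration that inhibits growth by half.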 The source made the active and inactive calls. Cut-off read from the data, not from the text of the source: active = GI50 up to about 1.1 µM and inactive = higher.

What was measured:
Assay in all cases: growth of human tumour cells (NCI), 48 h
KM-20L2 = test system: KM-20L2
UACC-62 = test system: UACC-62
SK-MEL-2 = test system: SK-MEL-2
OVCAR-5 = test system: OVCAR-5
SNB-78 = test system: SNB-78
HCT-116 = test system: HCT-116
U-251 = test system: U-251
MOLT-4 = test system: MOLT-4
HL-60 = test system: HL-60
SF-539 = test system: SF-539
UACC-257 = test system: UACC-257
COLO 205 = test system: COLO 205
SNB-75 = test system: SNB-75
SF-295 = test system: SF-295
HOP-92 = test system: HOP-92
OVCAR-4 = test system: OVCAR-4
CCRF-CEM = test system: CCRF-CEM
SF-268 = test system: SF-268
SNB-19 = test system: SNB-19
M14 = test system: M14
DMS-273 = test system: DMS-273
UO-31 = test system: UO-31
DMS-114 = test system: DMS-114
SK-MEL-5 = test system: SK-MEL-5
CAKI-1 = test system: CAKI-1
LXFL 529 = test system: LXFL 529
HCT-15 = test system: HCT-15
KM12 = test system: KM12
SN12C = test system: SN12C
SW-620 = test system: SW-620
Malme-3M = test system: Malme-3M
NCI-H23 = test system: NCI-H23
NCI-H460 = test system: NCI-H460
IGROV-1 = test system: IGROV-1
A549 = test system: A549
HOP-62 = test system: HOP-62
HOP-18 = test system: HOP-18
OVCAR-3 = test system: OVCAR-3
NCI-H522 = test system: NCI-H522
OVCAR-8 = test system: OVCAR-8
SR = test system: SR
SK-MEL-28 = test system: SK-MEL-28
NCI-H226 = test system: NCI-H226
SK-OV-3 = test system: SK-OV-3
RPMI-8226 = test system: RPMI-8226
EKVX = test system: EKVX
A498 = test system: A498
HCC 2998 = test system: HCC 2998
RXF 393 = test system: RXF 393
LOX IMVI = test system: LOX IMVI
RXF 631 = test system: RXF 631
ACHN = test system: ACHN
M19-MEL = test system: M19-MEL
TK-10 = test system: TK-10
DLD-1 = test system: DLD-1
HT-29 = test system: HT-29
786-0 = test system: 786-0
K562 = test system: K562
XF498 = test system: XF498

For `COC(=O)C12Oc3ccc(-c4ccc5c(c4O)C(=O)C4=CCC(C)C(O)C4(C(=O)OC)O5)c(O)c3C(=O)C1=CCC(C)C2O` (stereo not given), the GI50 (KM-20L2) was 1.44 µM (inactive), the GI50 (UACC-62) was 1.29 µM (inactive) and the GI50 (SK-MEL-2) was 1.41 µM (inactive). The GI50 (OVCAR-5) was 2.13 µM (inactive), the GI50 (SNB-78) was 1.95 µM (inactive) and the GI50 (HCT-116) was 0.925 µM (active). For the same compound, the GI50 (U-251) was 1.59 µM (inactive), the GI50 (MOLT-4) was 5.66 µM (inactive) and the GI50 (HL-60) was 0.935 µM (active). For the same compound, the GI50 (SF-539) was 2.89 µM (inactive), the GI50 (UACC-257) was 1.82 µM (inactive) and the GI50 (COLO 205) was 1.32 µM (inactive). The GI50 (SNB-75) was 6.22 µM (inactive), the GI50 (SF-295) was 2.02 µM (inactive) and the GI50 (HOP-92) was 1.26 µM (inactive). The GI50 (OVCAR-4) was 2.21 µM (inactive), the GI50 (CCRF-CEM) was 0.733 µM (active) and the GI50 (SF-268) was 1.1 µM (active). The GI50 (SNB-19) was 2.34 µM (inactive), the GI50 (M14) was 1.63 µM (inactive) and the GI50 (DMS-273) was 1.62 µM (inactive). The GI50 (UO-31) was 1.46 µM (inactive), the GI50 (DMS-114) was 1.3 µM (inactive) and the GI50 (SK-MEL-5) was 1.63 µM (inactive). For the same compound, the GI50 (CAKI-1) was 2.07 µM (inactive), the GI50 (LXFL 529) was 1.19 µM (inactive) and the GI50 (HCT-15) was 1.08 µM. For the same compound, the GI50 (KM12) was 1.47 µM (inactive), the GI50 (SN12C) was 1.98 µM (inactive) and the GI50 (SW-620) was 0.836 µM (active). For the same compound, the GI50 (Malme-3M) was 1.53 µM (inactive), the GI50 (NCI-H23) was 1.37 µM (inactive) and the GI50 (NCI-H460) was 1.97 µM (inactive). For the same compound, the GI50 (IGROV-1) was 1.62 µM (inactive), the GI50 (A549) was 1.94 µM (inactive) and the GI50 (HOP-62) was 2.18 µM (inactive). For the same compound, the GI50 (HOP-18) was 2.26 µM (inactive), the GI50 (OVCAR-3) was 1.36 µM (inactive) and the GI50 (NCI-H522) was 1.01 µM (active). For the same compound, the GI50 (OVCAR-8) was 0.964 µM (active), the GI50 (SR) was 0.843 µM (active) and the GI50 (SK-MEL-28) was 1.67 µM (inactive). The GI50 (NCI-H226) was 2.09 µM (inactive), the GI50 (SK-OV-3) was 1.96 µM (inactive) and the GI50 (RPMI-8226) was 0.897 µM (active). The GI50 (EKVX) was 1.88 µM (inactive), the GI50 (A498) was 2.19 µM (inactive) and the GI50 (HCC 2998) was 1.31 µM (inactive). The GI50 (RXF 393) was 1.63 µM (inactive), the GI50 (LOX IMVI) was 1.49 µM (inactive) and the GI50 (RXF 631) was 2.13 µM (inactive). For the same compound, the GI50 (ACHN) was 1.34 µM (inactive), the GI50 (M19-MEL) was 1.48 µM (inactive) and the GI50 (TK-10) was 2.44 µM (inactive). For the same compound, the GI50 (DLD-1) was 0.798 µM (active), the GI50 (HT-29) was 1.51 µM (inactive) and the GI50 (786-0) was 1.53 µM (inactive). For the same compound, the GI50 (K562) was 3.77 µM (inactive).

For `Nc1nn(CC(O)CO)c(=O)s1` (stereo not given), the GI50 (KM-20L2) was > 100 µM (inactive), the GI50 (UACC-62) was > 100 µM (inactive) and the GI50 (SK-MEL-2) was > 100 µM (inactive). The GI50 (OVCAR-5) was > 100 µM (inactive), the GI50 (HCT-116) was > 100 µM (inactive) and the GI50 (U-251) was > 100 µM (inactive). The GI50 (MOLT-4) was > 100 µM (inactive), the GI50 (HL-60) was > 100 µM (inactive) and the GI50 (SF-539) was > 100 µM (inactive). The GI50 (UACC-257) was > 100 µM (inactive), the GI50 (COLO 205) was > 100 µM (inactive) and the GI50 (SNB-75) was 64.6 µM (inactive). For the same compound, the GI50 (SF-295) was > 100 µM (inactive), the GI50 (OVCAR-4) was > 100 µM (inactive) and the GI50 (CCRF-CEM) was > 100 µM (inactive). For the same compound, the GI50 (XF498) was > 100 µM (inactive), the GI50 (SF-268) was > 100 µM (inactive) and the GI50 (SNB-19) was > 100 µM (inactive). The GI50 (M14) was > 100 µM (inactive), the GI50 (DMS-273) was > 100 µM (inactive) and the GI50 (UO-31) was > 100 µM (inactive). For the same compound, the GI50 (DMS-114) was > 100 µM (inactive), the GI50 (SK-MEL-5) was > 100 µM (inactive) and the GI50 (LXFL 529) was > 100 µM (inactive). For the same compound, the GI50 (HCT-15) was over 100 µM, the GI50 (SN12C) was > 100 µM (inactive) and the GI50 (SW-620) was > 100 µM (inactive). For the same compound, the GI50 (Malme-3M) was > 100 µM (inactive), the GI50 (NCI-H23) was > 100 µM (inactive) and the GI50 (NCI-H460) was > 100 µM (inactive). The GI50 (IGROV-1) was > 100 µM (inactive), the GI50 (A549) was > 100 µM (inactive) and the GI50 (HOP-62) was > 100 µM (inactive). The GI50 (HOP-18) was > 100 µM (inactive), the GI50 (OVCAR-3) was > 100 µM (inactive) and the GI50 (OVCAR-8) was > 100 µM (inactive). For the same compound, the GI50 (SR) was > 100 µM (inactive), the GI50 (SK-MEL-28) was 7.69 µM (inactive) and the GI50 (NCI-H226) was > 100 µM (inactive). The GI50 (SK-OV-3) was > 100 µM (inactive), the GI50 (RPMI-8226) was > 100 µM (inactive) and the GI50 (EKVX) was > 100 µM (inactive). The GI50 (A498) was > 100 µM (inactive), the GI50 (HCC 2998) was > 100 µM (inactive) and the GI50 (RXF 393) was > 100 µM (inactive). The GI50 (LOX IMVI) was > 100 µM (inactive), the GI50 (RXF 631) was > 100 µM (inactive) and the GI50 (ACHN) was > 100 µM (inactive). For the same compound, the GI50 (M19-MEL) was > 100 µM (inactive), the GI50 (TK-10) was > 100 µM (inactive) and the GI50 (DLD-1) was > 100 µM (inactive). The GI50 (HT-29) was > 100 µM (inactive) and the GI50 (K562) was > 100 µM (inactive).

With `C[N+](C)(C)CC1CCCC/C1=N\OC(=O)c1ccccc1` (stereo not given) the GI50 (KM-20L2) was > 100 µM (inactive), the GI50 (UACC-62) was > 100 µM (inactive) and the GI50 (OVCAR-5) was > 100 µM (inactive). For the same compound, the GI50 (SNB-78) was > 100 µM (inactive), the GI50 (HCT-116) was > 100 µM (inactive) and the GI50 (U-251) was > 100 µM (inactive). For the same compound, the GI50 (MOLT-4) was > 100 µM (inactive), the GI50 (SF-539) was > 100 µM (inactive) and the GI50 (UACC-257) was > 100 µM (inactive). The GI50 (COLO 205) was > 100 µM (inactive), the GI50 (SNB-75) was > 100 µM (inactive) and the GI50 (SF-295) was > 100 µM (inactive). The GI50 (HOP-92) was > 100 µM (inactive), the GI50 (OVCAR-4) was > 100 µM (inactive) and the GI50 (CCRF-CEM) was > 100 µM (inactive). For the same compound, the GI50 (SF-268) was > 100 µM (inactive), the GI50 (SNB-19) was > 100 µM (inactive) and the GI50 (M14) was > 100 µM (inactive). The GI50 (DMS-273) was > 100 µM (inactive), the GI50 (UO-31) was > 100 µM (inactive) and the GI50 (DMS-114) was > 100 µM (inactive). The GI50 (SK-MEL-5) was > 100 µM (inactive), the GI50 (CAKI-1) was > 100 µM (inactive) and the GI50 (LXFL 529) was > 100 µM (inactive). For the same compound, the GI50 (HCT-15) was over 100 µM, the GI50 (KM12) was > 100 µM (inactive) and the GI50 (SN12C) was > 100 µM (inactive). For the same compound, the GI50 (SW-620) was > 100 µM (inactive), the GI50 (Malme-3M) was > 100 µM (inactive) and the GI50 (NCI-H23) was > 100 µM (inactive). The GI50 (NCI-H460) was > 100 µM (inactive), the GI50 (IGROV-1) was > 100 µM (inactive) and the GI50 (A549) was > 100 µM (inactive). The GI50 (HOP-62) was > 100 µM (inactive), the GI50 (HOP-18) was > 100 µM (inactive) and the GI50 (OVCAR-3) was > 100 µM (inactive). The GI50 (NCI-H522) was > 100 µM (inactive), the GI50 (OVCAR-8) was > 100 µM (inactive) and the GI50 (SR) was > 100 µM (inactive). For the same compound, the GI50 (SK-MEL-28) was > 100 µM (inactive), the GI50 (SK-OV-3) was > 100 µM (inactive) and the GI50 (RPMI-8226) was > 100 µM (inactive). The GI50 (EKVX) was > 100 µM (inactive), the GI50 (HCC 2998) was > 100 µM (inactive) and the GI50 (RXF 393) was > 100 µM (inactive). The GI50 (LOX IMVI) was > 100 µM (inactive), the GI50 (RXF 631) was > 100 µM (inactive) and the GI50 (ACHN) was > 100 µM (inactive). For the same compound, the GI50 (M19-MEL) was > 100 µM (inactive), the GI50 (TK-10) was 36.1 µM (inactive) and the GI50 (DLD-1) was > 100 µM (inactive). The GI50 (HT-29) was > 100 µM (inactive), the GI50 (786-0) was > 100 µM (inactive) and the GI50 (K562) was > 100 µM (inactive).
